Patent US8394442B2, “Process for the preparation of a flavoring concentrate, and a flavoring concentrate” (SYMRISE AG, priority 2007, dated 2013)
Like-named read-outs stand apart in the source and are kept apart here.

Assays:
[1] = log Pow* calculated by Formula 2 from log Pow and the polarity parameter P′(x) of the ethanol/water mixture
[2] = log Pow: distribution coefficient between 1-octanol and water; conditions: 1-octanol/water
[3] = solvent ethanol, proportion 10%
[4] = solvent ethanol, proportion 30%
[5] = solvent ethanol, proportion 40%
[6] = solvent ethanol, proportion 50%
[7] = solvent ethanol, proportion 60%
[8] = solvent ethanol, proportion 70%
[9] = solvent ethanol, proportion 80%
[10] = solvent ethanol, proportion 90%
[11] = solvent ethanol, proportion 100%

SMILES	log Pow* (P′ 4%) [1]	log Pow* (P′ 6%) [1]	log Pow* (P′ 8%) [1]	log Pow* (P′ 10%) [1]	log Pow* (P′ 30%) [1]	log Pow* (P′ 40%) [1]	log Pow* (P′ 2%) ([1]; solvent ethanol, proportion 2%)	log Pow* (P′ 4%) ([1]; solvent ethanol, proportion 4%)	log Pow* (P′ 6%) ([1]; solvent ethanol, proportion 6%)	log Pow* (P′ 8%) ([1]; solvent ethanol, proportion 8%)	log Pow* (P′ 10%) [1, 3]	log Pow* (P′ 30%) [1, 4]	log Pow* (P′ 40%) [1, 5]	log Pow* (P′ 50%) [1, 6]	log Pow* (P′ 60%) [1, 7]	log Pow* (P′ 70%) [1, 8]	log Pow* (P′ 80%) [1, 9]	log Pow* (P′ 90%) [1, 10]	log Pow* (P′ 100%) [1, 11]	log Pow [2]	also measured
C=Cc1ccc(O)c(OC)c1	2.32	2.25	2.18	2.12	1.61	1.42															log Pow* (P′ 2%) [1]: 2.40; log Pow* (P′ 50%) [1]: 1.26; log Pow* (P′ 60%) [1]: 1.13; log Pow* (P′ 70%) [1]: 1.01; log Pow* (P′ 80%) [1]: 0.91; log Pow* (P′ 90%) [1]: 0.82; log Pow* (P′ 100%) [1]: 0.75
CCC(C)CO (stereo not shown) [2-mebutanol, 2-methylbutanol]							1.14	0.99	0.85	0.72	0.59	−0.39	−0.75	−1.05	−1.31	−1.53	−1.73	−1.89	−2.04	1.29	
CCC/C=C/C=O [2E-hexenal]							1.49	1.37	1.26	1.15	1.05	0.26	−0.03	−0.27	−0.47	−0.65	−0.81	−0.94	−1.06	1.61	
CCC/C=C/CO [2E-hexenol]							1.64	1.53	1.43	1.33	1.24	0.51	0.24	0.02	−0.17	−0.33	−0.47	−0.60	−0.71	1.75	
CC(C)CCO [3-mebutanol, 3-methylbutanol]	0.98	0.84	0.71	0.58	−0.41	−0.78														1.28	log Pow* (P′ 2%) [1]: 1.12; log Pow* (P′ 50%) [1]: −1.08; log Pow* (P′ 60%) [1]: −1.34; log Pow* (P′ 70%) [1]: −1.57; log Pow* (P′ 80%) [1]: −1.76; log Pow* (P′ 90%) [1]: −1.93; log Pow* (P′ 100%) [1]: −2.08
O=Cc1ccccc1 [Benzaldehyde]							1.52	1.40	1.30	1.19	1.09	0.32	0.03	−0.20	−0.41	−0.58	−0.73	−0.86	−0.98		
CCCCOC(C)=O [Butylacetate]							1.66	1.55	1.45	1.35	1.26	0.55	0.28	0.06	−0.13	−0.29	−0.43	−0.55	−0.66	1.77	
CC(C)=CCCC(C)=CC=O [Citral]	3.05	2.99	2.94	2.89	2.49	2.34														3.17	log Pow* (P′ 2%) [1]: 3.11; log Pow* (P′ 50%) [1]: 2.22; log Pow* (P′ 60%) [1]: 2.11; log Pow* (P′ 70%) [1]: 2.02; log Pow* (P′ 80%) [1]: 1.94; log Pow* (P′ 90%) [1]: 1.87; log Pow* (P′ 100%) [1]: 1.81
CC(=O)C(C)=O [Diacetyl]							−1.48	−1.62	−1.76	−1.88	−2.00	−2.96	−3.31	−3.60	−3.85	−4.07	−4.25	−4.42	−4.56	−1.33	
CCCSSCCC [Dipropyldisulfide]	3.80	3.76	3.71	3.67	3.34	3.22														3.90	log Pow* (P′ 2%) [1]: 3.85; log Pow* (P′ 50%) [1]: 3.12; log Pow* (P′ 60%) [1]: 3.04; log Pow* (P′ 70%) [1]: 2.97; log Pow* (P′ 80%) [1]: 2.90; log Pow* (P′ 90%) [1]: 2.85; log Pow* (P′ 100%) [1]: 2.80
O=Cc1ccco1 [Furfural]							0.46	0.20	−0.04	−0.28	−0.50	−2.24	−2.88	−3.41	−3.87	−4.26	−4.60	−4.90	−5.16		
OCc1ccco1 [Furfuryl alcohol]							−0.43	−1.10	−1.74	−2.35	−2.92	−7.46	−9.13	−10.52	−11.71	−12.73	−13.61	−14.39	−15.08		
CCCCCC=O [Hexanal]	1.77	1.68	1.60	1.51	0.87	0.63															log Pow* (P′ 50%) [1]: 0.43; log Pow* (P′ 60%) [1]: 0.27; log Pow* (P′ 70%) [1]: 0.12; log Pow* (P′ 80%) [1]: 0.00; log Pow* (P′ 90%) [1]: −0.12; log Pow* (P′ 100%) [1]: −0.21
CCCCCCOC(C)=O [Hexylacetate]	2.69	2.63	2.57	2.51	2.06	1.90															log Pow* (P′ 2%) [1]: 2.76; log Pow* (P′ 50%) [1]: 1.76; log Pow* (P′ 60%) [1]: 1.64; log Pow* (P′ 70%) [1]: 1.54; log Pow* (P′ 80%) [1]: 1.46; log Pow* (P′ 90%) [1]: 1.38; log Pow* (P′ 100%) [1]: 1.31
Oc1ccccc1 [Phenol]							1.35	1.22	1.10	0.98	0.87	0.02	−0.30	−0.56	−0.79	−0.98	−1.15	−1.30	−1.43		
